Reference: the kinase profiling compilation of Christmann-Franck et al. (2016)

Key:
Assay in all cases: radiometric filter-binding kinase assay
PRKAA1 or PRKAA2 (rat) = conditions: compound 1.0 µM; accession and sequence are those of the human protein
NTRK1 (human) = NTRK1 (human) (UniProt P04629); conditions: compound 1.0 µM
NEK6 (human) = NEK6 (human) (UniProt Q9HC98); conditions: compound 10.0 µM
SYK (human) = SYK (human) (UniProt P43405)
SRC (human) = SRC (human) (UniProt P12931); conditions: compound 10.0 µM
CSNK1D (human) = CSNK1D (human) (UniProt P48730); conditions: compound 1.0 µM
MAP2K1 (human) = MAP2K1 (human) (UniProt Q02750); conditions: compound 1.0 µM
TEK (human) = TEK (human) (UniProt Q02763)
MAPKAPK5 (human) = MAPKAPK5 (human) (UniProt Q8IW41)
EPHB2 (human) = EPHB2 (human) (UniProt P29323); conditions: compound 1.0 µM
MAPK9 (human) = MAPK9 (human) (UniProt P45984); conditions: compound 1.0 µM
CSK (human) = CSK (human) (UniProt P41240); conditions: compound 1.0 µM
GSK3B (human) = GSK3B (human) (UniProt P49841); conditions: compound 1.0 µM
SRPK1 (human) = SRPK1 (human) (UniProt Q96SB4)
CAMKK2 (human) = CAMKK2 (human) (UniProt Q96RR4); conditions: compound 1.0 µM
PIM1 (human) = PIM1 (human) (UniProt P11309)
IKBKE (human) = IKBKE (human) (UniProt Q14164); conditions: compound 10.0 µM
PTK6 (human) = PTK6 (human) (UniProt Q13882)
TSSK1B (human) = TSSK1B (human) (UniProt Q9BXA7); conditions: compound 1.0 µM
STK33 (human) = STK33 (human) (UniProt Q9BYT3)
MAPK1 (human) = MAPK1 (human) (UniProt P28482); conditions: compound 10.0 µM
NUAK1 (human) = NUAK1 (human) (UniProt O60285)
MINK1 (human) = MINK1 (human) (UniProt Q8N4C8); conditions: compound 10.0 µM
MYLK (human) = MYLK (human) (UniProt Q15746)
SIK2 (human) = SIK2 (human) (UniProt Q9H0K1); conditions: compound 10.0 µM
[1] = test system: PAK2 (human), Q13177 [T402E]; conditions: compound 1.0 µM
[2] = molecular target: STK11 CAB39 STRADA (human) (UniProt Q9Y376+Q7RTN6+Q15831)
WNK1 (human) = WNK1 (human) (UniProt Q9H4A3)
EPHB4 (human) = EPHB4 (human) (UniProt P54760)
PHKG1 (human) = PHKG1 (human) (UniProt Q16816)
MAP3K9 (human) = MAP3K9 (human) (UniProt P80192); conditions: compound 1.0 µM
PKN2 (human) = PKN2 (human) (UniProt Q16513); conditions: compound 10.0 µM
ZAP70 (human) = ZAP70 (human) (UniProt P43403); conditions: compound 1.0 µM
YES1 (human) = YES1 (human) (UniProt P07947); conditions: compound 1.0 µM
DYRK3 (human) = DYRK3 (human) (UniProt O43781); conditions: compound 1.0 µM
RPS6KA5 KD1 KD2 (human) = RPS6KA5 KD1 KD2 (human) (UniProt O75582); conditions: compound 10.0 µM
RIPK2 (human) = RIPK2 (human) (UniProt O43353)
IGF1R (human) = IGF1R (human) (UniProt P08069)
EPHB3 (human) = EPHB3 (human) (UniProt P54753)
MAP3K7 TAB1 (human) = MAP3K7 TAB1 (human) (UniProt Q15750+O43318)
RPS6KA1 KD1 KD2 (human) = RPS6KA1 KD1 KD2 (human) (UniProt Q15418); conditions: compound 1.0 µM
CDK2 CCNA2 (human) = CDK2 CCNA2 (human) (UniProt P20248+P24941)
LCK (mouse) = conditions: compound 1.0 µM; accession and sequence are those of the human protein
MAPK14 (human) = MAPK14 (human) (UniProt Q16539)
INSRR (human) = INSRR (human) (UniProt P14616); conditions: compound 1.0 µM
MELK (human) = MELK (human) (UniProt Q14680); conditions: compound 1.0 µM
STK24 (human) = STK24 (human) (UniProt Q9Y6E0); conditions: compound 1.0 µM

Sequence of MAP3K7 TAB1 (human) (O43318 whole entry, looked up): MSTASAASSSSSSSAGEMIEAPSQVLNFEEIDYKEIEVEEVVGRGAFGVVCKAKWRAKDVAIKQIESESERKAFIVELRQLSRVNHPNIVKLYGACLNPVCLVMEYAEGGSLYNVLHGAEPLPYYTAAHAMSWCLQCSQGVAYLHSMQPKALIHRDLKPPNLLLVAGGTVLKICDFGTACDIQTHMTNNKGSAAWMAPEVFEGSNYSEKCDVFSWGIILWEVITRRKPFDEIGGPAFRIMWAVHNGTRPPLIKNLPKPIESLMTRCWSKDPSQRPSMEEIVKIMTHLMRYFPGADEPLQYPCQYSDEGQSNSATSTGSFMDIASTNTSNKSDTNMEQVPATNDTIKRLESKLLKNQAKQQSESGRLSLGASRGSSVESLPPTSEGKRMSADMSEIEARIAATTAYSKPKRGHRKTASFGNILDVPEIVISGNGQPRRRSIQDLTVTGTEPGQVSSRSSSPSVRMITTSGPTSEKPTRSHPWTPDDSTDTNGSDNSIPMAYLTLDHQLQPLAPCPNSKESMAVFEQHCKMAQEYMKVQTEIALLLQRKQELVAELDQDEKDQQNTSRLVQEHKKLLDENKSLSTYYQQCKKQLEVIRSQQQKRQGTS
Sequence of MAP3K7 TAB1 (human) (Q15750 whole entry, looked up): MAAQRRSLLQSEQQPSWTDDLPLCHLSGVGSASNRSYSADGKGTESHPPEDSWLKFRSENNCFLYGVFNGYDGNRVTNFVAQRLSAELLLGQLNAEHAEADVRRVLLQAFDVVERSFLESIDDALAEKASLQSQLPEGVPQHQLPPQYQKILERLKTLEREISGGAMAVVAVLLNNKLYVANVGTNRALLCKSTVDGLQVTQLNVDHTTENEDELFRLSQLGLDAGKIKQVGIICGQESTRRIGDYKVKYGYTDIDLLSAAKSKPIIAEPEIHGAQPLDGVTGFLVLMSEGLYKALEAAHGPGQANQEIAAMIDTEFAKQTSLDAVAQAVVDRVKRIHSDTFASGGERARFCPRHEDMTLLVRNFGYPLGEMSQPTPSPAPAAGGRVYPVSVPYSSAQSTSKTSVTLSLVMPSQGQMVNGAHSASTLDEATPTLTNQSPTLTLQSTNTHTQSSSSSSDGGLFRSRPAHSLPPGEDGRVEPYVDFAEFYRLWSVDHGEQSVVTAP
Sequence of TEK (human) (Q02763 whole entry, looked up): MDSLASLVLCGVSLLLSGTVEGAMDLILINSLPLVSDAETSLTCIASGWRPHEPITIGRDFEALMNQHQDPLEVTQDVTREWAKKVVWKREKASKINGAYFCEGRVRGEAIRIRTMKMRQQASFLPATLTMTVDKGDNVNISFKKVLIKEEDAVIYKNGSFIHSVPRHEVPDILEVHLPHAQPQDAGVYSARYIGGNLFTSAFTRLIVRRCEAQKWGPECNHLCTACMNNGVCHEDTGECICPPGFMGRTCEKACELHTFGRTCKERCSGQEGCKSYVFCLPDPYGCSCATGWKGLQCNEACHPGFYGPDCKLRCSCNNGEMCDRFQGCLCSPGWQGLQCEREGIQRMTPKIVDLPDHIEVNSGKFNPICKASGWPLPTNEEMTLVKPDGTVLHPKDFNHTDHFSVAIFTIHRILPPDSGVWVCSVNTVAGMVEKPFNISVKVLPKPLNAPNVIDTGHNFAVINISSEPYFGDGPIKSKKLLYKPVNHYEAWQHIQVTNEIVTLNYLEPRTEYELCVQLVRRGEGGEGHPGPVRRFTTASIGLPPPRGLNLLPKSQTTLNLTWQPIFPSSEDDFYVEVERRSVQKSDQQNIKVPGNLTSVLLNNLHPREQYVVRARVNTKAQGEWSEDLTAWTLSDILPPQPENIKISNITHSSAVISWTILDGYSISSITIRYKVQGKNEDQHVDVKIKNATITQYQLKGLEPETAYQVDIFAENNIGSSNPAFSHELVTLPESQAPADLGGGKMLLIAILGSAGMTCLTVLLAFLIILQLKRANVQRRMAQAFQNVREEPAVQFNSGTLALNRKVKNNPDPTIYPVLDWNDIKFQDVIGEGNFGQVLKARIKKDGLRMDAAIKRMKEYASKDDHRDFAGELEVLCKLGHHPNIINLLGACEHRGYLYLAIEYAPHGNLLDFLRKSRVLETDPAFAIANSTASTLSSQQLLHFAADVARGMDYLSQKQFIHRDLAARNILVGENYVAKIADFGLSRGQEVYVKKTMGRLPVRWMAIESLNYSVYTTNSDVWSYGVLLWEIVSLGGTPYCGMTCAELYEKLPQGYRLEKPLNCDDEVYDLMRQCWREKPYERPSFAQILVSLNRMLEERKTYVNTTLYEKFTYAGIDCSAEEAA
Sequence of STK33 (human) (Q9BYT3 whole entry, looked up): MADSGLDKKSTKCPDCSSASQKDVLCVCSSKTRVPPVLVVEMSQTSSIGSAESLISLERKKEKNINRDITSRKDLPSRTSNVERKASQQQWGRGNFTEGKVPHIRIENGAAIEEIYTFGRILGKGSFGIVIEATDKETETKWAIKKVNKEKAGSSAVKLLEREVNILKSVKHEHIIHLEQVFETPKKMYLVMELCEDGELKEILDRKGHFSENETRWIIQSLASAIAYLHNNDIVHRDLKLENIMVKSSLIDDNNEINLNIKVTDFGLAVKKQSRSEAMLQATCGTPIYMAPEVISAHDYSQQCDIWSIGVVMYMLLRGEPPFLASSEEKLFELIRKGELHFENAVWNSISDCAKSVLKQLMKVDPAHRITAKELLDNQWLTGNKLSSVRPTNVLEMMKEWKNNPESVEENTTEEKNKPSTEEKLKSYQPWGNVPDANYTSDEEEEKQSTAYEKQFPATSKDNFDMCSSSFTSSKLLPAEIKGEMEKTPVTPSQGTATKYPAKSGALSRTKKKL
Sequence of WNK1 (human) (Q9H4A3 whole entry, looked up): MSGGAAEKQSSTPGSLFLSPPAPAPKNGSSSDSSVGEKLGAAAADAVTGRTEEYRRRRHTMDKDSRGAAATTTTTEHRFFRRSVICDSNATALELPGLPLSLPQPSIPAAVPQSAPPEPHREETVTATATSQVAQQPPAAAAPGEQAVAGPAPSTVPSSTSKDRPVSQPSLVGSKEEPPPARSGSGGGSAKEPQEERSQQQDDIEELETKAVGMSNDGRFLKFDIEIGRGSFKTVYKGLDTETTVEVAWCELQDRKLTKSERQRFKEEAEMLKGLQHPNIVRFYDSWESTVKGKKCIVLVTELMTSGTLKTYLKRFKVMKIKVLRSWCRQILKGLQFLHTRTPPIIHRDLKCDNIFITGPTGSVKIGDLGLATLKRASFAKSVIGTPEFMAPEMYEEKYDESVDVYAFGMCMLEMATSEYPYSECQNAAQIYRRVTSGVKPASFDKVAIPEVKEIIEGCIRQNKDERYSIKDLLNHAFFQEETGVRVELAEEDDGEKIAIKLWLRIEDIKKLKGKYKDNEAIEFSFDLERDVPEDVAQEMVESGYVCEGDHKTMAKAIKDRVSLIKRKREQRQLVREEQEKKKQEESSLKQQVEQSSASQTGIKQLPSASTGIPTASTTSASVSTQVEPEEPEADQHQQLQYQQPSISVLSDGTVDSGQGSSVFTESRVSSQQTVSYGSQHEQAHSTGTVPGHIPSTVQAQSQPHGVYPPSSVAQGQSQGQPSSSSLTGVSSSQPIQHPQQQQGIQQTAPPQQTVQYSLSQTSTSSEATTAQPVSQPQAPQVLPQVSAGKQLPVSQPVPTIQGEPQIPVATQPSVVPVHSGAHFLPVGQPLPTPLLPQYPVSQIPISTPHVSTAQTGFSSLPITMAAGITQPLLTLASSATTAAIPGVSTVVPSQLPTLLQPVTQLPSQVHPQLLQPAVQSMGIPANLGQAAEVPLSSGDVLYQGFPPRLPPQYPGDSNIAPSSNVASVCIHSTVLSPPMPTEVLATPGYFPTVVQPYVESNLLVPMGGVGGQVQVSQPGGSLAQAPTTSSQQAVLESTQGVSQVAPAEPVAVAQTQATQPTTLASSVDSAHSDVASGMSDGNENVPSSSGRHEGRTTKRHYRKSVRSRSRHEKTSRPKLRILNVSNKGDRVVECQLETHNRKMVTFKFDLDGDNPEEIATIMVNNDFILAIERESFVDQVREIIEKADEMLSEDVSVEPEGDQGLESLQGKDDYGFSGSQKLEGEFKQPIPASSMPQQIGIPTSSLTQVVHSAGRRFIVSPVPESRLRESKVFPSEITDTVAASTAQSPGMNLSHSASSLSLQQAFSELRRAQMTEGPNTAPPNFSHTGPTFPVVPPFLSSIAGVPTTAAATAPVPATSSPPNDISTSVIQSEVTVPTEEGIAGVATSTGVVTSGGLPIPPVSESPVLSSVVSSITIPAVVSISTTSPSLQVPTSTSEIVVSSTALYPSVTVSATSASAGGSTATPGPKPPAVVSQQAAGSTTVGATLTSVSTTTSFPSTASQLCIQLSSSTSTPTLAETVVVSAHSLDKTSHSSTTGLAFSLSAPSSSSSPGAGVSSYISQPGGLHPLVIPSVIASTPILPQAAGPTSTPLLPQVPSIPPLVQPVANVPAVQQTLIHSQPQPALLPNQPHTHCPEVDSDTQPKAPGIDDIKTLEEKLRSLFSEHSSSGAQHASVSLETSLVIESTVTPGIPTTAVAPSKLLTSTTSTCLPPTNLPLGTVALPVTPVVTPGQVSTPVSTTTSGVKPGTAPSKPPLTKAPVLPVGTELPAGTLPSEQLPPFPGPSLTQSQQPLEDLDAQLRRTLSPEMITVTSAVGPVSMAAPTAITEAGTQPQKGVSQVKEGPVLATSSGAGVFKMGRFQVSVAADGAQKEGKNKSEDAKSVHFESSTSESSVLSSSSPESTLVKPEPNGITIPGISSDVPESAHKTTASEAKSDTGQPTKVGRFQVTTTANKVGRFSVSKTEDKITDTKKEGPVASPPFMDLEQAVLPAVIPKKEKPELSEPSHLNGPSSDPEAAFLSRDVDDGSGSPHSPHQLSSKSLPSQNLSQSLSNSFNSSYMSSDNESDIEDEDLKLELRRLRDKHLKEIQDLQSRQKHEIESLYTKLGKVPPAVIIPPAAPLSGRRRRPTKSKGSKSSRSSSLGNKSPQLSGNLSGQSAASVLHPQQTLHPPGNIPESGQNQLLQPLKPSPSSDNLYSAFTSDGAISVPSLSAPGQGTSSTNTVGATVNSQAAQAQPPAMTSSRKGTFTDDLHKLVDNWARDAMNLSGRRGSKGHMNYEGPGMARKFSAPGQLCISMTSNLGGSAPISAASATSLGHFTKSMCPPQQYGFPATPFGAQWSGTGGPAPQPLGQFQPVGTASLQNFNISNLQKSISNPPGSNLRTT

SMILES: O=C(Nc1cccnc1)c1cc(-c2ccnc(F)c2)ccc1OCc1ccccc1
- residual activity (PRKAA1 or PRKAA2 (rat)): 90%
- residual activity (NTRK1 (human)): 80%
- residual activity (NEK6 (human)): 65%
- residual activity (SYK (human); compound 1.0 µM): 115%
- residual activity (SYK (human); compound 10.0 µM): 125%
- residual activity (SRC (human)): 160%
- residual activity (CSNK1D (human)): 107%
- residual activity (MAP2K1 (human)): 77%
- residual activity (TEK (human); compound 1.0 µM): 119%
- residual activity (TEK (human); compound 10.0 µM): 133%
- residual activity (MAPKAPK5 (human); compound 1.0 µM): 109%
- residual activity (MAPKAPK5 (human); compound 10.0 µM): 114%
- residual activity (EPHB2 (human)): 123%
- residual activity (MAPK9 (human)): 107%
- residual activity (CSK (human)): 104%
- residual activity (GSK3B (human)): 119%
- residual activity (SRPK1 (human); compound 1.0 µM): 61%
- residual activity (SRPK1 (human); compound 10.0 µM): 69%
- residual activity (CAMKK2 (human)): 71%
- residual activity (PIM1 (human); compound 1.0 µM): 102%
- residual activity (PIM1 (human); compound 10.0 µM): 109%
- residual activity (IKBKE (human)): 102%
- residual activity (PTK6 (human); compound 1.0 µM): 103%
- residual activity (PTK6 (human); compound 10.0 µM): 101%
- residual activity (TSSK1B (human)): 103%
- residual activity (STK33 (human); compound 1.0 µM): 64%
- residual activity (STK33 (human); compound 10.0 µM): 66%
- residual activity (MAPK1 (human)): 115%
- residual activity (NUAK1 (human); compound 1.0 µM): 31%
- residual activity (NUAK1 (human); compound 10.0 µM): 58%
- residual activity (MINK1 (human)): 76%
- residual activity (MYLK (human); compound 1.0 µM): 32%
- residual activity (MYLK (human); compound 10.0 µM): 23%
- residual activity (SIK2 (human)): 111%
- residual activity [1]: 116%
- residual activity ([2]; compound 1.0 µM): 97%
- residual activity ([2]; compound 10.0 µM): 105%
- residual activity (WNK1 (human); compound 1.0 µM): 104%
- residual activity (WNK1 (human); compound 10.0 µM): 106%
- residual activity (EPHB4 (human); compound 1.0 µM): 118%
- residual activity (EPHB4 (human); compound 10.0 µM): 108%
- residual activity (PHKG1 (human); compound 1.0 µM): 78%
- residual activity (PHKG1 (human); compound 10.0 µM): 75%
- residual activity (MAP3K9 (human)): 69%
- residual activity (PKN2 (human)): 79%
- residual activity (ZAP70 (human)): 103%
- residual activity (YES1 (human)): 120%
- residual activity (DYRK3 (human)): 101%
- residual activity (RPS6KA5 KD1 KD2 (human)): 120%
- residual activity (RIPK2 (human); compound 1.0 µM): 59%
- residual activity (RIPK2 (human); compound 10.0 µM): 56%
- residual activity (IGF1R (human); compound 1.0 µM): 123%
- residual activity (IGF1R (human); compound 10.0 µM): 117%
- residual activity (EPHB3 (human); compound 1.0 µM): 121%
- residual activity (EPHB3 (human); compound 10.0 µM): 113%
- residual activity (MAP3K7 TAB1 (human); compound 1.0 µM): 108%
- residual activity (MAP3K7 TAB1 (human); compound 10.0 µM): 101%
- residual activity (RPS6KA1 KD1 KD2 (human)): 69%
- residual activity (CDK2 CCNA2 (human); compound 1.0 µM): 113%
- residual activity (CDK2 CCNA2 (human); compound 10.0 µM): 117%
- residual activity (LCK (mouse)): 113%
- residual activity (MAPK14 (human); compound 1.0 µM): 101%
- residual activity (MAPK14 (human); compound 10.0 µM): 102%
- residual activity (INSRR (human)): 76%
- residual activity (MELK (human)): 102%
- residual activity (STK24 (human)): 101%
